The target in the assay is Platelet-derived growth factor receptor beta (Homo sapiens, UniProt P09619). The experiment in a line: PDGFRβ Kinase Assay: Biochemical PDGFRβ kinase assays were performed in 96 well microtiter plates that were coated overnight with 75 μg of poly-Glu-Tyr (4:1) in 10 mM Phosphate Buffered Saline (PBS), pH 7.4. The coated plates were washed with 2 mls per well PBS+0.05% Tween-20 (PBS-T), blocked by incubation with PBS containing 1% BSA, then washed with 2 mls per well PBS-T prior to starting the reaction. Reactions were carried out in 100 μL reaction volumes containing 36 μM ATP in kinase buffer (50 mM Hepes buffer pH 7.4, 20 mM MgCl2, 0.1 mM MnCl2 and 0.2 mM Na3VO4). Test compounds were reconstituted in 100% DMSO and added to the reaction to give a final DMSO concentration of 5%. Reactions were initiated by the addition 20 ul per well of kinase buffer containing 200-300 ng purified cytoplasmic domain PDGFR-b protein (Millipore). Following a 60 minute incubation at 30° C., the reactions were washed 2 mls per well PBS-T. 100 μl of a monoclonal anti-phosphotyrosine antibody-peroxidase conjugate diluted 1:10,000 in PBS-T was added to the wells for 30 minutes. Following a 2 mls per well wash with PBS-Tween-20, 100 μl of O-Phenylenediamine Dihydrochloride in phosphate-citrate buffer, containing urea hydrogen peroxide, was added to the wells for 7-10 minutes as a colorimetric substrate for the peroxidase. […].
Sequence of Platelet-derived growth factor receptor beta (P09619 whole entry): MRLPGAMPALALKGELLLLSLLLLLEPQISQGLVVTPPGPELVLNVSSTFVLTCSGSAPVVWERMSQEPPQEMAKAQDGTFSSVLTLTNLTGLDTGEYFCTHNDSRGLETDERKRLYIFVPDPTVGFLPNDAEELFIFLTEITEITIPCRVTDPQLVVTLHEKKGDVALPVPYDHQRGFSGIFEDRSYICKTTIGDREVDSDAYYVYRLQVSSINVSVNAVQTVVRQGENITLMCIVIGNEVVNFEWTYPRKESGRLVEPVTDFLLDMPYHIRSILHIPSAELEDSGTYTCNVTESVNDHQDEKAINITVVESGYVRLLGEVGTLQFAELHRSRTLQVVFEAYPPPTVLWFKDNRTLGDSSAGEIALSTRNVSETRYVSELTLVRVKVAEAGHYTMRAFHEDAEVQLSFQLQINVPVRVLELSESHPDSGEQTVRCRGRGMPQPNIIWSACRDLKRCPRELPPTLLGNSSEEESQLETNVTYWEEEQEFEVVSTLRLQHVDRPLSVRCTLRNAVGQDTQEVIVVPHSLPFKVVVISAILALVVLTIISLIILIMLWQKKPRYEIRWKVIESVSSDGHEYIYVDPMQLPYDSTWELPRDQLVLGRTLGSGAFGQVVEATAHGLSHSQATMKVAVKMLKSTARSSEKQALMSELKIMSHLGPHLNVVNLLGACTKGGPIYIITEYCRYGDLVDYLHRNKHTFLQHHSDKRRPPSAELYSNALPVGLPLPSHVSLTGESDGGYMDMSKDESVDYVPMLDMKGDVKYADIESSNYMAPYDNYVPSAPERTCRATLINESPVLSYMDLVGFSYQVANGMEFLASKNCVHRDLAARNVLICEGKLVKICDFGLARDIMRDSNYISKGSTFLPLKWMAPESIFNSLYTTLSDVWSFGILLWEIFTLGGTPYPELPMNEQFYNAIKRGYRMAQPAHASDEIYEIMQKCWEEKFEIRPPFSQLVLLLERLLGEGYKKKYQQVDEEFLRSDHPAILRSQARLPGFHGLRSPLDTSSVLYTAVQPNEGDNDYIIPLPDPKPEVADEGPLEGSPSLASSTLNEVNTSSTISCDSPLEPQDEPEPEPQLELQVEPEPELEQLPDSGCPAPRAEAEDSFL

From ChEMBL document CHEMBL5725727, “Substituted nicotinamide derivatives as kinase inhibitors” (2017) come the findings set out here.

In general, IC50 refers to the midpoint of a concentration-inhibition curve. As for `Cc1ccc(F)c(NC(=O)c2cccc(C#Cc3cc(C(=O)N=S4(=O)CCOCC4)cnc3N)c2)c1`, half-maximal inhibition (IC50) required 11 nM.
